Structures can show the parent of a compound that is named as a salt. Where two headings read alike, the source gives them in different places.

The target in one experiment is T1, IKKβ (Homo sapiens, UniProt O14920).
T1 sequence (O14920 1-756): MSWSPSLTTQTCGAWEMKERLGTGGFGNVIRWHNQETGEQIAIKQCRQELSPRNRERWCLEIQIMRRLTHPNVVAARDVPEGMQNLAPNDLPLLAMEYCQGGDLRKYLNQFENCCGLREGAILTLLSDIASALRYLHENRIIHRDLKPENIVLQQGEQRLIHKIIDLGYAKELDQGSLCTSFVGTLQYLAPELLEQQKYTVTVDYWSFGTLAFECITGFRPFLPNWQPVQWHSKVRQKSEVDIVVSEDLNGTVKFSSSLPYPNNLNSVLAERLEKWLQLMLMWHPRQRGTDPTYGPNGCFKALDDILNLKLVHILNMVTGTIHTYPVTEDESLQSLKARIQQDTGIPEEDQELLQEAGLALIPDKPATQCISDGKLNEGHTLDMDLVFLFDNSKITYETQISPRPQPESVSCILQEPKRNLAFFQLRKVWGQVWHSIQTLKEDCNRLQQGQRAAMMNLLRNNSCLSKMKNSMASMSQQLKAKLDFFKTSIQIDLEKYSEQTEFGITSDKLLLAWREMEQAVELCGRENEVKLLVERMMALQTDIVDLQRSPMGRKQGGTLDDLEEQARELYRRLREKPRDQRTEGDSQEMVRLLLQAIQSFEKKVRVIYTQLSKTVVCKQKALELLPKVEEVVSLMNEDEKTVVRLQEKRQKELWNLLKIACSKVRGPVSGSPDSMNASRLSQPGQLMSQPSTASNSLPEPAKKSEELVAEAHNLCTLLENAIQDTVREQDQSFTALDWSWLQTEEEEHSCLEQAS
The experiment can be described thus: IKKβ kinase assay (IKKβ-Inhibitor Screening Kit, ELISA). It is filed as biochemical. The settings on record: IKKβ-Inhibitor Screening Kit (Calbiochem), GST-IκBα substrate. Here is the method: The IKKβ kinase assay is used to assess the effect of a compound of the present invention on the enzymatic activity of IKKβ kinase. The IKKβ kinase assay is performed in vitro using an IKKβ-Inhibitor Screening Kit (Calbiochem., Cat.No. CBA044). All reactions (50 μL) are started by adding 10 μL of kinase buffer (kit component, No. JA9130), 10 μL of GST-IKBa substrate (IKKb substrate, kit component, No. JA9127), 10 μL of IKKβ (2.5 ng/well, kit component, No. 481404), 10 μL of the test compound (DMSO solution) or H2O, and 10 μL of ATP/MgCl2 (kit component, No. JA7914) and then incubating at 30° C. for 30 min. The contents of the wells are then discarded. Each well is washed 3 times with 200 μL 1× wash buffer (kit component, NO. JA1617, 1:20 dilution). 100 μL of anti-phospho IκBα (Ser^32/Ser^36) antibody conjugate (kit component, No. JA9126) is added to each well and incubated at room temperature for 1 h. Then the wells are washed 3 times with 1× wash buffer (kit component, NO. JA1617, 1:20 dilution), […] and 100 μL HRP-conjugate (kit component, No. JA7643) is added to each well and incubated at room temperature for 1 h. Then the wells are washed 3 times with 200 μL 1× wash buffer (kit component, NO. JA1617, 1:20 dilution) and 100 μL TMB substrate conjugate (kit component, No. JA1608) is added to each well. The plate is incubated at room temperature until the color changes. […]
In general terms: An ELISA detects its analyte on a solid surface through an enzyme-linked reagent.

A further experiment has as its system BxPC-3 cells. The experiment can be described thus: Cell viability test, combination study, BxPC-3. The class given is cell-based, human. The note with it: for inhibition at 2.5 µM / inhibition at 25 µM: Homo sapiens, BXPC-3, 72 h, read-out: Ave. Inhibition rate. On the procedure:
(§1) To evaluate biological activity of a compound in vitro, the cell viability test is applied, in which, IKKβ receptor plays an important role in cell survival and proliferation. Once the IKKβ pathway is blocked by inhibitors, a cell can go through apoptosis or death. The cell viability test provides information on cell survival after treatment with IKK inhibitors.
(§2) BxPC-3 cells (ATCC #CRL-1687; human pancreatic cancer cell line) are grown in Roswell Park Memorial Institute (RPMI) 1640 media (Gibco #A10491-01) supplemented with 10% fetal bovine serum (FBS) (Gibco #10099-141). Skov3-luc cells (ATCC, human ovarian carcinoma cell line) are grown in McCoy's 5a medium (Gibco#16600) supplemented with 10% FBS (Gibco#10099-141). For compound testing, BxPc-3 and Skov3-Luc cells are seeded at 2000 and 5000 cells/well respectively in 100 μL of corresponding media specified above for each cell line in 96-well plates 20 h prior to treatment. Cells are treated with a test compound at eight different concentrations in the presence of 0.5% DMSO for 72 h. Cell death in each well is determined by the addition of 20 μL of the One Solution Reagent (CELLTITER 96® AQueous One Solution Cell Proliferation Assay, Promega #G3580). After 2-4 h of incubation at 37° C., optical densities at 492 nm are measured with a microplate reader Inhibition of cell viability is determined by comparison to the control cells treated in the absence of a test compound.
(§3) For the combination study of the compound with other antitumor agents, BxPc-3 and Skov3-Luc cells are seeded at 2000 and 5000 cells/well respectively in 100 μL corresponding media specified above for each cell line in 96-well plates 20 h prior to the treatment. The cells are treated with the test compound at a number of concentrations for 30 minutes and then exposed to 5 ng/mL TNFα or 0.15-0.6 uM of VCR (vincristine sulfate) for an additional 72 hours. Cell death in each well is determined by the addition of 20 μL of the One Solution Reagent (CELLTITER 96® AQueous One Solution Cell Proliferation Assay, Promega #G3580). After 2-4 h of incubation at 37° C., optical densities at 492 nm are measured with a microplate reader Inhibition of cell viability is determined by comparison to the control cells treated in the absence of a test compound. For example, the results of the combination study with Example 1 are specially detailed in Table 2.

The test system of a further experiment is Skov3-luc cells. The experiment can be described thus: Cell viability test, combination study, Skov3-luc. It is filed as cell-based. The note with it: Homo sapiens, 72 h, read-out: Ave. Inhibition rate. Here is the method:
as §1, §2
as §3, with “The cells are treated with the test compound at a number of concentrations for 30 minutes and then exposed to 5 ng/mL TNFα or 0.15-0.6 uM of VCR (vincristine sulfate) for an additional 72 hours.” left out, “For example, the results of the combination study with Example 1 are specially detailed in Table 2.” left out

On to `O=C(NC1CC1)c1cccc2[nH]c(-c3nc(N[C@@H]4CCC[C@@H]4O)ncc3Cl)cc12` [Example 1, 2-{5-Chloro-2-[(1R,2S)-2-hydroxycyclopentylamino]pyrimidin-4-yl}-N-cyclopropyl-1H-indole-4-carboxamide hydrochloride], for which the IC50 (in general, the point on the concentration scale where inhibition reaches its midpoint) against IKKβ is 15 nM. For the same compound, the “Ave. Inhibition rate” value in the experiment on BxPC-3 cells (Example 1 25 μM alone, 72 h, hydrochloride) stood at 11.53%. Moreover, the figures for the inhibition at 2.5 µM with BxPC-3 cells (Example 1 2.5 μM alone) and in the experiment with BxPC-3 cells (TNFα 5 ng/mL + Example 1 2.5 μM) were -16.5% and 87.8%, respectively. The inhibition (commonly the change of the read-out against control, counted positive when it falls) at 25 µM amounted to 11.5% in the experiment on BxPC-3 cells (Example 1 25 μM alone) and 80.2% in the experiment with BxPC-3 cells (Vincristine 0.15 μM + Example 1 25 μM). Besides, the inhibition at 12.5 µM with Skov3-luc cells (Example 1 12.5 μM alone) was 21.8%; with Skov3-luc cells (Vincristine 0.25 μM + Example 1 12.5 μM) it was 82.3%.

Source of the values: patent US8501166B2, “Pyrimidinyl indole compounds” (Hutchison Medipharma Limited, priority 2010, dated 2013).
